Measurements from ChEMBL document CHEMBL5726747, “Substituted pyrido[3,4-d]pyrimidines and pyrido[4,3-d]pyrimidines as p70S6K inhibitors” (2019).

Legend:
[1] = target: Ribosomal protein S6 kinase beta-1 (Homo sapiens, UniProt P23443, T412E); assay: p70S6K Enzyme Assay: p70S6K inhibitor compounds were diluted and plated in 96 well plates. A reaction mixture including the following components were then added to the compound plate to initiate the enzyme reaction: p70S6K (3 nM, T412E mutant, Millipore) was mixed with 24 μM ATP in an assay buffer containing 100 mM Hepes (pH 7.5), 5 mM MgCl2, 1 mM DTT, 0.015% Brij and 1 μM of the substrate peptide FITC-AHA-[…]-OH (derived from the S6 ribosomal protein sequence, FITC=fluorescein isothiocyanate, AHA=6-aminohexanoic acid). The reaction was incubated for 90 min at 25° C., before the addition of 10 mM EDTA to stop the reaction. The proportion of substrate and product (phosphorylated) peptide was analyzed on a Caliper Life Sciences Lab Chip 3000, using a pressure of −1.4 psi, and upstream and downstream voltages of −3000 and −700, respectively. Product peaks were resolved before substrate peaks on the resulting chromatograms. To assess the inhibitory potential of the compounds, IC50 values were determined, as shown above.
[2] = target: RAC-alpha serine/threonine-protein kinase (Homo sapiens, UniProt P31749); assay: AKT/PKB Kinase Assay: In order to measure AKT inhibition in the Caliper Life Sciences LC3000, a TTP Mosquito liquid handling instrument was used to place 125 nl of the appropriate concentration of inhibitor in 100% DMSO (for a dose response curve calculation) into each well of a 384-well plate. To this reaction, the following components were added to a final volume of 12.5 μl: 0.1 ng/μl His-AKT (Full Length) (Invitrogen, Part # P2999, Lot #641228C); 160 μM ATP (Fluka, 02055); 1 mM DTT (Sigma, D0632); 1 mM MgCl2 (Sigma, M1028); 1 μM substrate peptide (sequence FITC-AHA-[…]-NH2), synthesized by Tufts Peptide Synthesis service; 100 mM HEPES pH 7.5 (Calbiochem, 391338); and 0.015% Brij-35 (Sigma, B4184).The reaction was incubated for 90 min at 25° C., and then stopped by the addition of 70 μl of Stop buffer (100 mM HEPES pH 7.5, 0.015% Brij-35, 10 mM EDTA (Sigma, E7889)). The plate was read on a Caliper LC 3000 in an Off-Chip mobility shift assay format, using the following parameters for a 12-sipper chip: screening pressure −2.3 psi, upstream voltage −500, and downstream voltage −3000. These conditions cause unphosphorylated substrate and phosphorylated product peptide to resolve as separate peaks allowing direct measurement of percentage of conversion of substrate to product. The percent conversion was plotted against concentration of inhibitor to produce a sigmoidal dose response curve, from which an IC50 was calculated.
RAC-alpha serine/threonine-protein kinase, sequence (P31749 whole entry): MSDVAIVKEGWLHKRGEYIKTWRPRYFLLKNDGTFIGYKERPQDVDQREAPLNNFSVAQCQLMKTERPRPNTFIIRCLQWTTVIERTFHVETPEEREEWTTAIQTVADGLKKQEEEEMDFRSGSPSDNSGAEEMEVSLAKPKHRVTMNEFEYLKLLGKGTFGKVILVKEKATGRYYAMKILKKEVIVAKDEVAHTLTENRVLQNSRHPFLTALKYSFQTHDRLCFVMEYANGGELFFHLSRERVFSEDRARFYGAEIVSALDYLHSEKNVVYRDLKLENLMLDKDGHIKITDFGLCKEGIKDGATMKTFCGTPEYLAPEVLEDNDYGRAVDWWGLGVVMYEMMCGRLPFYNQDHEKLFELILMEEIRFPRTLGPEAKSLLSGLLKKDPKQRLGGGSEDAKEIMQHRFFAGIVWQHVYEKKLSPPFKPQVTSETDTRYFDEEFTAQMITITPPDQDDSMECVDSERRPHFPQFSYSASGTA

Ribosomal protein S6 kinase beta-1, sequence (P23443 whole entry T412E): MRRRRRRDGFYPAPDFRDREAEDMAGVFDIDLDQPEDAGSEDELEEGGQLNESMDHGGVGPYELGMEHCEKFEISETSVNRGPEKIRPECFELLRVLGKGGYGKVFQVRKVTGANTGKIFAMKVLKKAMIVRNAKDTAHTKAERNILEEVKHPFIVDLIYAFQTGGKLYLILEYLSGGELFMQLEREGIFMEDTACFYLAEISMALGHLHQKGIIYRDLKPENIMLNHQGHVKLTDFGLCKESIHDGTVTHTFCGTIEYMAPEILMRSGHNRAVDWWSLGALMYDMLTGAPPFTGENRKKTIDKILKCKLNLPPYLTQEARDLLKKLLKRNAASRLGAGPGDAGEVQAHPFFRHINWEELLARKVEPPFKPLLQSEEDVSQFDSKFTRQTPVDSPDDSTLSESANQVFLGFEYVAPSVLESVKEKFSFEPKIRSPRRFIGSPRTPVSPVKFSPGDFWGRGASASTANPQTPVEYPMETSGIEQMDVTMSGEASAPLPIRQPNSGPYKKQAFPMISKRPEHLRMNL

Row | SMILES | IC50 [1] | IC50 [2]
1 | CNC[C@@H](Nc1ncnc2c(C(N)=O)ccnc12)c1ccc(F)c(Cl)c1 | < 25 nM | < 25 nM
2 | NC(=O)c1ccnc2c(N[C@H](CN3CCC3)c3ccc(F)c(C(F)F)c3)ncnc12 | < 25 nM | < 25 nM
3 | CN(C)C[C@@H](Nc1ncnc2c(C(N)=O)ccnc12)c1ccc(Cl)c(F)c1 | < 25 nM | –
4 | NC(=O)c1ccnc2c(N[C@H](CN3CCC3)c3ccc(F)c(C(F)(F)F)c3)ncnc12 | < 25 nM | < 25 nM
5 | CCNC[C@@H](Nc1ncnc2c(C(N)=O)ccnc12)c1ccc(F)c(Cl)c1 | < 25 nM | –
6 | CCNC[C@@H](Nc1ncnc2c(C(N)=O)ccnc12)c1ccc(F)c(Br)c1 | < 25 nM | –
7 | N#Cc1ccc([C@@H](CN2CCC2)Nc2ncnc3c(C(N)=O)ccnc23)cc1Cl | < 25 nM | < 25 nM
